Data taken from patent US10786508B2, “Substituted imidazo[1,5-A]-pyrimidines and their use in the treatment of medical disorders” (Lysosomal Therapeutics Inc., priority 2014, dated 2020).
≈ marks a conversion by molar mass, not a printed value.

Assays:
[1] = Compound solubility in water; format: physicochemical
[2] = target: T1, glucocerebrosidase (Gcase) (Homo sapiens, UniProt P04062); assay: Glucocerebrosidase (Gcase) activation assay, 4-methylumbelliferyl-beta-D-glucopyranoside substrate, with saposin C; format: biochemical; conditions: 10 nM GCase, 100 nM saposin C, pH 4.7; for activation at 0.1 µM: read-out: Percent Gease Activation 0.1 μM Test Compound; for activation at 1 µM: read-out: Percent Gease Activation 1 μM Test Compound
T1 construct: micellar solution containing 10 nM GCase and 100 nM saposin C
T1 sequence (P04062 40-536): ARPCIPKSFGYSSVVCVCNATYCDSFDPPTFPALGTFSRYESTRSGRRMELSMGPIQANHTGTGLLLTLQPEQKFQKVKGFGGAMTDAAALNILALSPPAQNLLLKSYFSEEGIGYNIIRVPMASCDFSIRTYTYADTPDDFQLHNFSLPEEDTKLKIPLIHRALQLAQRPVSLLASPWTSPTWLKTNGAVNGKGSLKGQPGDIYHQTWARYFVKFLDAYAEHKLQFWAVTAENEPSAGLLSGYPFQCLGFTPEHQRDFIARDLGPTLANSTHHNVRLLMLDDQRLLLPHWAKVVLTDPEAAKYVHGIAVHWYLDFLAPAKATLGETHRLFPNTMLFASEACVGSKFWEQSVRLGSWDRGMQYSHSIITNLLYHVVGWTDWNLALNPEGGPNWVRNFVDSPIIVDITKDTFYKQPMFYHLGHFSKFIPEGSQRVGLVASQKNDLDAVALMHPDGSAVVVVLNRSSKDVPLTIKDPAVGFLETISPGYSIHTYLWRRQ
Experimental: The ability of exemplary compounds to activate glucocerebrosidase (Gcase) was measured.
A 484 μL aliquot of a 1.0 mg/mL solution of phosphatidylserine (PS) (Sigma P7769) in chloroform was evaporated under a stream of nitrogen for 1 hour. The lipid film was dissolved over 4 minutes of vigorous vortexing in 40 mL of 176 mM K2HPO4/50 mM citric acid (pH 4.7) containing 7.5 μL of triton X-100, resulting in a mixed micellar preparation with a composition of 0.32 mM triton and 0.37 mol % PS. 4-Methylumbelliferyl-beta-D-glucopyranoside (ACROS-337025000) was dissolved in the micellar solution to a final concentration of 2 mM for use as the reaction substrate.
Test compounds were diluted to the desired concentrations with dimethylsulfoxide (DMSO) from 10 mM stocks, and 0.41 μL of the DMSO compound mixture was added to 100 μL of micellar solution containing 10 nM GCase and 100 nM saposin C (Enzo ALX-201-262-C050). Pre-incubation was allowed to occur for 30 minutes at room temperature, after which the reaction was initiated by combining 25 μL of substrate solution with 25 μL of compound/GCase/saposin mixture. The reaction proceeded for 15 minutes at room temperature and was stopped by adding 150 μL of 1M glycine, pH 12.5. The endpoint of the reaction was monitored by measuring fluorescence intensity (excitation: 365 nm; emission: 440 nm) on a SpectraMax i3 instrument (Molecular Devices). Test compounds were screened at 1.0 and 0.1 μM final concentration, and subsequent 8-point dose response curves were obtained using 3-fold dilutions from a maximum final concentration of 5 μM.
For experiments in which the test compound was used at a concentration of 1.0 μM, the symbol “+” indicates less than 30% Gcase activation; the symbol “++” indicates Gcase activation in the range of 30% up to 60%; and the symbol “+++” indicates Gcase activation greater than 60%. For experiments in which the test compound was used at a concentration of 0.1 μM, the symbol “*” indicates less than 10% Gcase activation; the symbol “**” indicates Gcase activation in the range of 10% up to 20%; and the symbol “***” indicates greater than 20% Gcase activation.

SMILES	solubility [1]	activation at 0.1 µM ([2]; 0.1 μM test compound)	activation at 1 µM ([2]; 1 μM test compound)	Compound Solubility in Water [1]	Percent Gease Activation 0.1 μM Test Compound ([2]; 0.1 μM test compound)	Percent Gease Activation 1 μM Test Compound ([2]; 1 μM test compound)
C#Cc1ccc(C(C)(C)NC(=O)c2ncn3c(C)cc(C)nc23)cc1 [III-42]	18.7 µg/mL (≈ 56.3 µM)	< 10%	30 to 60%			
Cc1cc(C)n2cnc(C(=O)Nc3ccc4[nH]c(C)cc4c3)c2n1 [III-7]	0.7 µg/mL (≈ 2.19 µM)	< 10%	< 30%			
CCC(NC(=O)c1ncn2c(C)cc(C)nc12)c1cccc(Cl)c1 (stereo not drawn) [III-81]	20.3 µg/mL (≈ 59.2 µM)	10 to 20%	> 60%			
CCCCO[C@H]1C[C@H]2CC[C@@H](C1)[C@H]2NC(=O)c1ncn2c(C)cc(C)nc12 [III-84]	0.2 µg/mL (≈ 0.54 µM)	> 20%	> 60%			
CCCOc1cccc(C(C)(C)NC(=O)c2ncn3c(COC)cc(C4CC4)nc23)c1 [III-51]	10.5 µg/mL (≈ 24.9 µM)	> 20%	> 60%			
CCCCO[C@@H]1[C@@H]2CC[C@H]1C[C@@H](NC(=O)c1ncn3c(C)cc(C)nc13)C2 [III-86]	14.6 µg/mL (≈ 39.4 µM)	10 to 20%	> 60%			
COCC#Cc1ccc(NC(=O)c2ncn3c(C)cc(C)nc23)cc1 [III-2]	5.8 µg/mL (≈ 17.3 µM)	< 10%	30 to 60%			
Cc1cc(C)n2cnc(C(=O)Nc3ccc4cn[nH]c4c3)c2n1 [III-11]	0.5 µg/mL (≈ 1.63 µM)	< 10%	< 30%			
CCOc1ccc(C(C)NC(=O)c2ncn3c(C)cc(C)nc23)cc1 (stereo not drawn) [III-80]	25.9 µg/mL (≈ 76.5 µM)	< 10%	< 30%			
Cc1cc(C)n2cnc(C(=O)Nc3ccc(C)c(-c4ncco4)c3)c2n1 [III-26]	0.5 µg/mL (≈ 1.44 µM)	10 to 20%	> 60%			
COc1ccccc1[C@@H](C)NC(=O)c1ncn2c(C)cc(C)nc12 [III-76]	23 µg/mL (≈ 70.9 µM)	< 10%	30 to 60%			
Cc1cc(C)n2cnc(C(=O)Nc3ccc(Cl)c(-c4cnco4)c3)c2n1 [III-27]	0.2 µg/mL (≈ 0.544 µM)	< 10%	30 to 60%			
Cc1cc(C)n2cnc(C(=O)Nc3cccc4c3CCC4)c2n1 [III-65]	0.9 µg/mL (≈ 2.94 µM)	10 to 20%	> 60%			
CCOCc1cccc(C(C)(C)NC(=O)c2ncn3c(C4CC4)cc(COC)nc23)c1 [III-73]	31.6 µg/mL (≈ 74.8 µM)	< 10%	< 30%			
Cc1cc(C)n2cnc(C(=O)Nc3ccc4nc(O)cc(C)c4c3)c2n1 [III-13]	0.3 µg/mL (≈ 0.864 µM)	< 10%	< 30%			
CCOCc1cccc(C(C)(C)NC(=O)c2ncn3c(COC)cc(C(C)C)nc23)c1 [III-61]	20.6 µg/mL (≈ 48.5 µM)	< 10%	30 to 60%			
Cc1cc(C)n2cnc(C(=O)NC3CCc4ccccc43)c2n1 (stereo not drawn) [III-68]	21 µg/mL (≈ 68.5 µM)	< 10%	< 30%			
CCCCCO[C@H]1CC[C@H](NC(=O)c2ncn3c(C)cc(C)nc23)CC1 [III-70]	19.6 µg/mL (≈ 54.7 µM)	10 to 20%	30 to 60%			
COCc1cc(C2CC2)n2cnc(C(=O)NC(C)(C)c3cccc(OC4CC4)c3)c2n1 [III-55]	26.3 µg/mL (≈ 62.5 µM)	10 to 20%	> 60%			
Cc1cc(C)n2cnc(C(=O)Nc3ncc(C)[nH]3)c2n1 [III-6]	> 54 µg/mL	< 10%	< 30%			

SMILES	solubility [1]	activation at 0.1 µM ([2]; 0.1 μM test compound)	activation at 1 µM ([2]; 1 μM test compound)	Compound Solubility in Water [1]	Percent Gease Activation 0.1 μM Test Compound ([2]; 0.1 μM test compound)	Percent Gease Activation 1 μM Test Compound ([2]; 1 μM test compound)
C#Cc1ccc(NC(=O)c2ncn3c(C)cc(C)nc23)cn1 [III-5]	26.6 µg/mL (≈ 91.3 µM)	< 10%	< 30%			
CCCCCOc1ccc(NC(=O)c2ncn3c(C)cc(C)nc23)cc1 [III-28]	0.3 µg/mL (≈ 0.851 µM)	> 20%	> 60%			
Cc1cc(C(C)C)n2cnc(C(=O)NC3(C)CCOc4c(F)cccc43)c2n1 (stereo not drawn) [III-37]	28 µg/mL (≈ 73.2 µM)	< 10%	30 to 60%			
Cc1cc(C)n2cnc(C(=O)Nc3ccc(-c4cscn4)cc3)c2n1 [III-64]	0.6 µg/mL (≈ 1.72 µM)	< 10%	30 to 60%			
Cc1cc(C)n2cnc(C(=O)Nc3ccc4c(C)cc(=O)oc4c3)c2n1 [III-9]	0.3 µg/mL (≈ 0.861 µM)	< 10%	< 30%			
Cc1cc(C)n2cnc(C(=O)NC3CCc4ccccc4C3)c2n1 (stereo not drawn) [III-69]	16.6 µg/mL (≈ 51.8 µM)	< 10%	30 to 60%			
C#Cc1cccc(C(C)(C)NC(=O)c2ncn3c(C)cc(C(F)(F)F)nc23)c1 [III-40]	40.5 µg/mL (≈ 105 µM)	< 10%	< 30%			
COCc1cc(C(C)C)n2cnc(C(=O)NC(C)(C)c3cccc(OC4CC4)c3)c2n1 [III-57]	38.5 µg/mL (≈ 91.1 µM)	10 to 20%	> 60%			
Cc1cc(C)n2cnc(C(=O)Nc3ccc4nc(C)sc4c3)c2n1 [III-21]	1.1 µg/mL (≈ 3.26 µM)	< 10%	< 30%			
COc1ccc(F)cc1C(C)NC(=O)c1ncn2c(C)cc(C)nc12 (stereo not drawn) [III-79]	32 µg/mL (≈ 93.5 µM)	< 10%	30 to 60%			
Cc1cc(C)n2cnc(C(=O)N[C@@H](C)c3cccc(Cl)c3)c2n1 [III-77]	26 µg/mL (≈ 79.1 µM)	< 10%	30 to 60%			
CCC(NC(=O)c1ncn2c(C)cc(C)nc12)c1ccc(F)cc1 (stereo not drawn) [III-78]	39.5 µg/mL (≈ 121 µM)	< 10%	30 to 60%			
Cc1cc(C)n2cnc(C(=O)Nc3ccc(-c4ccco4)nc3)c2n1 [III-31]				<0.01 µg/mL	* (less than 10% Gcase activation)	+ (less than 30% Gcase activation)
CCC(C)(NC(=O)c1ncn2c(C)cc(C)nc12)c1ccc(F)cc1 (stereo not drawn) [III-43]	14.7 µg/mL (≈ 43.2 µM)	10 to 20%	> 60%			
Cc1cc(C)n2cnc(C(=O)NC3CCCc4ccccc43)c2n1 (stereo not drawn) [III-71]	70.7 µg/mL (≈ 221 µM)	< 10%	30 to 60%			
COCc1cc(C2CC2)nc2c(C(=O)NC(C)(C)c3cccc(OC4CC4)c3)ncn12 [III-56]	14.4 µg/mL (≈ 34.2 µM)	10 to 20%	> 60%			
CCCOc1cccc(C(C)(C)NC(=O)c2ncn3c(COC)cc(COC)nc23)c1 [III-52]	37.6 µg/mL (≈ 88.2 µM)	10 to 20%	> 60%			
Cc1cc(C)n2cnc(C(=O)Nc3ccc4c(c3)CC(=O)N4)c2n1 [III-10]	6.4 µg/mL (≈ 19.9 µM)	< 10%	< 30%			
Cc1cc(C)n2cnc(C(=O)Nc3ccc4nccc(O)c4c3)c2n1 [III-24]	6 µg/mL (≈ 18 µM)	< 10%	< 30%			
CCCCO[C@H]1[C@@H]2CC[C@H]1C[C@@H](NC(=O)c1ncn3c(C)cc(C)nc13)C2 [III-85]	13.1 µg/mL (≈ 35.4 µM)	< 10%	> 60%			
